Structures are written as SMILES. In brackets after ≈: the same amount, converted by molar mass. Where two headings read alike, the source gives them in different places. Bridge positions count the residues as written; N and C are the ends. Square brackets hold non-standard residues; d marks the D form. Peptide text beside a SMILES is read from it.

Common to all, as to assay type: cell-based
One series has as its system E. coli. Conditions: for MIC in Broth Dilution, E. coli, RBC −: absence of RBC; for MIC in Broth Dilution, E. coli, RBC − / MIC in Broth Dilution, E. coli, RBC +: Table 3; for MIC, E. coli, No RBC / MIC, E. coli, 10^9 cells/ml RBC: Table 2; for MIC in Broth Dilution, E. coli, RBC +: presence of 1×10^9 human RBC/ml; for MIC, E. coli, 10^9 cells/ml RBC: with 10^9 human RBC/ml. The procedure: (§1) Peptide variants of D-CONGA (SEQ ID NO: 1) were tested for activity against E. coli, K. pneumoniae, and S. aureus. Minimum Inhibitory Concentrations (MIC) were measured in 96-well plates by broth dilution. Peptides were serially diluted in buffer or in buffer containing 1×10^9 human RBC/ml. Following 1 hr. incubation, bacteria in growth media were added and the plates were incubated overnight at 37° C. Sterilized, wells were identified to determine MIC. Hemolysis was measured by incubating 1×10^8 human RBCs with serially diluted peptide for 30 minutes followed by centrifugation of the cells and measurements of the released hemoglobin in the supernatant by absorbance at 410 nm. The value for 100% hemolysis was established by treatment with the detergent Triton-X100. Toxicity was measured by incubating serially diluted peptide with WI38 human fibroblast cells in the presence of SYTOX Green, a DNA binding dye that reports on cell death by membrane permeabilization. The peptide concentration that gives 50% cytotoxicity by relative SYTOX Green fluorescence, is denoted EC50.
(§2) Antimicrobial peptides and conventional antibiotics were prepared at 5-times the final concentration needed in 0.025% acetic acid. The antibiotics were serially diluted by a factor of 2:3 horizontally across 96-well plates from Corning, 25 μL per well. One column was reserved for controls. For the assays performed in the presence of RBC, type O+ human RBCs at 0 or 2.5×10^9 cells/mL were added in 50 μL aliquots to all wells. Following a 30-minute incubation, 50 μL of TSB, inoculated with 5×10^5 CFU/mL, was added to all wells, and plates were incubated overnight at 37° C. Following overnight incubation at 37° C., the OD600 was measured (values of less than 0.1 were considered sterilized). To assess bacterial growth in the assays with RBC, the OD600 was measured after a second day inoculation with 10 μL of solution from the original plate added to 100 μL of sterile TSB followed by overnight incubation.
(§3) MIC values were reported in μM peptide against gram-negative E. coli (EC), P. aeruginosa (PA), and gram-positive S. aureus (SA). The two columns under each organism are for assays performed in the absence (−) and presence (+) of 1×10^9 human RBC/ml. “>30” means that sterilization was not observed at 30 μM, the highest concentration tested. The column marked “hemolysis” is the fractional hemolysis of 1×10^8 human RBC/ml at 100 μM peptide determined from measurements of serially diluted peptide, starting from 100 μM. The column marked “EC 50” contains the concentration of peptide that kills 50% of WI-38 human fibroblast cells assayed by entry of SYTOX™ Green DNA binding dye.
(In broth dilution the organism is exposed to a series of concentrations in liquid medium.)

The test system of another series is K. pneumoniae. Conditions: presence of 1×10^9 human RBC/ml; Table 3. The method, then:
as §1, §2, §3

The subject of another series is S. aureus. The following applies: for MIC in Broth Dilution, S. Aureus, RBC −: absence of RBC. The procedure:
as §1, §2, §3

A further series concerns human RBCs. Description: Hemolysis of human RBCs. The procedure: as §1
Peptide was serially diluted in PBS starting at a concentration of 100 μM. The final volume of peptide in each well was 50 μL. To each well, 50 μL of RBCs in PBS at 2×10^8 cells/mL was added. As a positive lysis control, 1% triton was used. The mixtures were incubated at 37° C. for 1 hour, after which they were centrifuged at 1000 g for 5 minutes. After centrifugation, 10 μL of supernatant was transferred to 90 μL of DI H2O in a fresh 96-well plate. The absorbance of released hemoglobin at 410 nm was recorded and the fractional hemolysis was calculated based on the 100% and 0% lysis controls.
as §3

[1] abbreviates: fractional hemolysis of 1×10^8 human RBC/ml at 100 μM peptide, Table 3.
[2] abbreviates: fractional hemolysis of human RBCs at 100 μM peptide, Table 2.

In the case of `CC(C)C[C@@H]1NC(=O)[C@H](CCCNC(=N)N)NC(=O)[C@H](CCCNC(=N)N)NC(=O)[C@H](C)NC(=O)[C@H](Cc2c[nH]c3ccccc23)NC(=O)[C@H](CCCNC(=N)N)NC(=O)[C@H](CCCNC(=N)N)NC(=O)[C@H](CCCNC(=N)N)NC(=O)[C@H](CCCNC(=N)N)NC(=O)[C@H](Cc2ccccc2)NC(=O)[C@H](C)NC(=O)[C@H](Cc2ccccc2)NC(=O)[C@H](C)NC1=O` [CYCLIZED-L-CONGA-OH] (cyclo(RRWARRLAFAFRR)), in the series on E. coli, the “MIC in Broth Dilution, E. coli, RBC −” value turned out to be 5.9 µM (≈ 10.3 µg/mL); the “MIC, E. coli, No RBC” value stood at 5.9 µM (≈ 10.3 µg/mL); the “MIC in Broth Dilution, E. coli, RBC +” value is 13.3 µM; the “MIC, E. coli, 10^9 cells/ml RBC” value was 13.3 μM. In addition, the “MIC in Broth Dilution, K. Pneumoniae, RBC +” value in the series on K. pneumoniae came out at 6 µM. The “MIC in Broth Dilution, S. Aureus, RBC −” value in the series with S. aureus (Table 3) was 20 µM (≈ 34.9 µg/mL). Moreover, in the series with S. aureus (Table 2), the “MIC, S. aureus, No RBC” value amounted to 20 µM (≈ 34.9 µg/mL). In addition, in the series with human RBCs (setting [1]), the “Hemolysis at 100 μM” value is on record as 0.7. In addition, the “Hemolysis at 100 μM” value with human RBCs (setting [2]) is 0.7.

Take `CC(C)C[C@@H]1NC(=O)[C@H](CCCNC(=N)N)NC(=O)[C@H](CCCNC(=N)N)NC(=O)[C@H](C)NC(=O)[C@H](Cc2c[nH]c3ccccc23)NC(=O)[C@H](CCCNC(=N)N)NC(=O)[C@H](CCCNC(=N)N)NC(=O)CC[C@@H](C(N)=O)NC(=O)[C@H](CCCNC(=N)N)NC(=O)[C@H](CCCNC(=N)N)NC(=O)[C@H](Cc2ccccc2)NC(=O)[C@H](C)NC(=O)[C@H](Cc2ccccc2)NC(=O)[C@H](C)NC1=O` [CYCLIZED-L-CONGA-E] (RRWARRLAFAFRRE-NH2; lactam N-14): in the series with E. coli, the “MIC in Broth Dilution, E. coli, RBC −” value is 22.9 µM (≈ 42.9 µg/mL); the “MIC, E. coli, No RBC” value was determined as 24 µM (≈ 44.9 µg/mL); the “MIC in Broth Dilution, E. coli, RBC +” value is over 30 µM; the “MIC, E. coli, 10^9 cells/ml RBC” value worked out at 30 μM. In the series on K. pneumoniae, the “MIC in Broth Dilution, K. Pneumoniae, RBC +” value is over 30 µM. The “MIC in Broth Dilution, S. Aureus, RBC −” value in the series on S. aureus (Table 3) was over 30 µM. Moreover, the “MIC, S. aureus, No RBC” value in the series with S. aureus (Table 2) is 30 µM (≈ 56.2 µg/mL). Also, the “Hemolysis at 100 μM” value in the series with human RBCs (setting [1]) was determined as 0.03. Further, the “Hemolysis at 100 μM” value with human RBCs (setting [2]) stood at 0.03.

Consider `CC(C)C[C@@H](NC(=O)[C@@H](CCCNC(=N)N)NC(=O)[C@@H](CCCNC(=N)N)NC(=O)[C@@H](C)NC(=O)[C@@H](Cc1c[nH]c2ccccc12)NC(=O)[C@@H](CCCNC(=N)N)NC(=O)[C@H](N)CCCNC(=N)N)C(=O)N[C@H](C)C(=O)N[C@H](Cc1ccccc1)C(=O)N[C@H](C)C(=O)N[C@H](Cc1ccccc1)C(=O)N[C@H](CCCNC(=N)N)C(N)=O` [D-CONGA-ΔR13, rrwarrlafafr (All D)] (H-[dR][dR][dW][dA][dR][dR][dL][dA][dF][dA][dF][dR]-NH2), for which, in the series on E. coli, the “MIC in Broth Dilution, E. coli, RBC −” value stood at 0.9 µM (≈ 1.44 µg/mL); the “MIC, E. coli, No RBC” value is 0.9 µM (≈ 1.44 µg/mL); the “MIC in Broth Dilution, E. coli, RBC +” value worked out at 0.6 µM; the “MIC, E. coli, 10^9 cells/ml RBC” value is 0.6 μM. The “MIC in Broth Dilution, S. Aureus, RBC −” value in the series on S. aureus (Table 3) worked out at 27.1 µM (≈ 43.5 µg/mL). The “MIC, S. aureus, No RBC” value with S. aureus (Table 2) stood at 27 µM (≈ 43.3 µg/mL). Besides, the “MIC in Broth Dilution, S. Aureus, RBC +” value with S. aureus (presence of 1×10^9 human RBC/ml, Table 3) is over 30 µM. Further, the “MIC, S. aureus, 10^9 cells/ml RBC” value in the series with S. aureus (with 10^9 human RBC/ml, Table 2) was determined as 30 μM. Moreover, in the series on human RBCs, the “Hemolysis at 100 μM” value came out at 0.03.

Source of the values: patent US20230310540A1, “PEPTIDE COMPOSITIONS AND METHODS OF USE THEREOF” (priority 2020, published 2023).
